Changes are numbered by the printed parent chain.
Legend:
[1] = system: T1, Lysosomal alpha-mannosidase (Homo sapiens), O00754 [C55F]; test: Chaperone activity at human Lysosomal alpha-mannosidase C55F mutant transfected in human […] knockout HAP1 cells assessed as enzyme activity enhancement at 2 uM incubated for 96 hrs relative to control
T1 sequence (whole entry): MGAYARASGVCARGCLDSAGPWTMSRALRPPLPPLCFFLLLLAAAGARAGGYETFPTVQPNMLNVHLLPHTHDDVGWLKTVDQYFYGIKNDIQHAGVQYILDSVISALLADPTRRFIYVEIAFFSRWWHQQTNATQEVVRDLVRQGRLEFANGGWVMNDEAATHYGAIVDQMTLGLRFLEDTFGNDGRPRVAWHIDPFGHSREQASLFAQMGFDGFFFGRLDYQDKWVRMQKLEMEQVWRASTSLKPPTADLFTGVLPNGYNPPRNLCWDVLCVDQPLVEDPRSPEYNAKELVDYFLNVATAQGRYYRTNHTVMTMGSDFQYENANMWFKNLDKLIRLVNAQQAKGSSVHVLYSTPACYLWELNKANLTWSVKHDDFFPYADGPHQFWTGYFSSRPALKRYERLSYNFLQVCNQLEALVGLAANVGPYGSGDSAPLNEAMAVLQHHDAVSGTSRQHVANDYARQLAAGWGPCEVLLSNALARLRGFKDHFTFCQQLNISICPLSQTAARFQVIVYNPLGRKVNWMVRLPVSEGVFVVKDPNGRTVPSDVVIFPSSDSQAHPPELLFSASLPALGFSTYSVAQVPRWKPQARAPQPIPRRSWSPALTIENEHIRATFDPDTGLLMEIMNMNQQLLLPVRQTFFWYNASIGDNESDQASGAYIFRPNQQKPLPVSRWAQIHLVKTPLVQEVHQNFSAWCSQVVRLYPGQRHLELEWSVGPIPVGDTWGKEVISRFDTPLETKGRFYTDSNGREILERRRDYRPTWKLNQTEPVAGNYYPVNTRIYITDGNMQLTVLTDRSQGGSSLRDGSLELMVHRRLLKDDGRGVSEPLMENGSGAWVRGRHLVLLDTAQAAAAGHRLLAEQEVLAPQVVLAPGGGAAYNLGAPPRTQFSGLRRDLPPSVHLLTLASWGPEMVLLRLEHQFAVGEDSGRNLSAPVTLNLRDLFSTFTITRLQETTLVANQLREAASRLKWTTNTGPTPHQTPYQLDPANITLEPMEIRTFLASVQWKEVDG

[2] = system: T2, Lysosomal alpha-mannosidase (Homo sapiens), O00754 [H72L]; test: Chaperone activity at human Lysosomal alpha-mannosidase H72L mutant transfected in human […] knockout HAP1 cells assessed as enzyme activity enhancement at 0.2 uM incubated for 96 hrs relative to control
T2 sequence (whole entry): T1 sequence (whole entry) with F55C, H72L

[3] = system: T2, Lysosomal alpha-mannosidase (Homo sapiens), O00754 [H72L]; test: Chaperone activity at human Lysosomal alpha-mannosidase H72L mutant transfected in human […] knockout HAP1 cells assessed as enzyme activity enhancement at 20 uM incubated for 96 hrs relative to control

Compound	Activity [1] [%]	Activity [2] [%]	Activity [3] [%]
COC[C@H]1O[C@@H]2O[C@H]3[C@H](OC)[C@@H](OC)[C@@H](O[C@H]4[C@H](OC)[C@@H](OC)[C@@H](O[C@H]5[C@H](OC)[C@@H](OC)[C@@H](O[C@H]6[C@H](OC)[C@@H](OC)[C@@H](O[C@H]7[C@H](OC)[C@@H](OC)[C@@H](O[C@H]8[C@H](OC)[C@@H](OC)[C@@H](O[C@H]1[C@H](OC)[C@H]2OC)O[C@@H]8COC)O[C@@H]7COC)O[C@@H]6COC)O[C@@H]5COCc1cn(CCCCCCN[C@@H]2[C@@H](O)[C@@H](O)[C@H](O)[C@H]5COC(=O)N52)nn1)O[C@@H]4COC)O[C@@H]3COC	12	48	16
CC(C)(C)OC(=O)NCCCCCCCCCN[C@@H]1[C@@H](O)[C@@H](O)[C@H](O)[C@H]2COC(=O)N21	51	0	68

— ChEMBL document CHEMBL4396870, “Pharmacological Chaperones for the Treatment of α-Mannosidosis” (J Med Chem, 2019)
